The target of the test is T1, Human glucocorticoid receptors (Homo sapiens, UniProt P04150).
T1 construct: made in house; host or cells: Sf9 insect cells, recombinant baculovirus (BAC-TO-BAC)
T1 sequence (P04150 1-777): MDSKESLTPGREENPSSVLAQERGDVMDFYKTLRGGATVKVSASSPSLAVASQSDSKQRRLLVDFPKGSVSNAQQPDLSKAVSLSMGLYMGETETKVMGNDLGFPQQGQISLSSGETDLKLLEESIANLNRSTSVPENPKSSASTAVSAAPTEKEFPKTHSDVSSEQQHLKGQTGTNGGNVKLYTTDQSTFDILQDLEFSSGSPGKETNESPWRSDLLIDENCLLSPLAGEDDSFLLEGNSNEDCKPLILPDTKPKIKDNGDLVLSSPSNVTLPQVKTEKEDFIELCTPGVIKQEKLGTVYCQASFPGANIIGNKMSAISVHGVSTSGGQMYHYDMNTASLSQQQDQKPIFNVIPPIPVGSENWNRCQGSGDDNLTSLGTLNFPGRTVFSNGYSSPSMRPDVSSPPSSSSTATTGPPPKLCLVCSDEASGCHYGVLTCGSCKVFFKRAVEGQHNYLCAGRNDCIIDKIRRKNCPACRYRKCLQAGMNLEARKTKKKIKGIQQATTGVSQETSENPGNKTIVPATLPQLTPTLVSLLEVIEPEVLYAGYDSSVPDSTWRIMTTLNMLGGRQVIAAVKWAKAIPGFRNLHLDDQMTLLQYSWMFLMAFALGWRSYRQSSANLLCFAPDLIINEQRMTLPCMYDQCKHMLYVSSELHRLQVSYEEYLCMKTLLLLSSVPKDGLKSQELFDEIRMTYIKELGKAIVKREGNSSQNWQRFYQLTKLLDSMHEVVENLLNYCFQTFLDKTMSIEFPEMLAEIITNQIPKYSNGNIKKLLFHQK
Kind of test: Radioligand filter binding assay, displacement of 3[H]-dexamethasone from hGR. To be noted: read-out: GR Binding (% Inhibition at 1.7 μM). The text has this:
Dexamethasone hereafter referred to as dex was purchased from SIGMA. […] Human glucocorticoid receptors were extracted from Sf9 cells infected with a recombinant baculovirus transfer vector containing the cloned hGR genes. Recombinant baculovirus was generated utilizing the BAC-TO-BAC expression system (Life Technologies) in accordance to instruction from the supplier. The hGR coding sequences were cloned into a baculovirus transfer vector by standard techniques. The recombinant baculoviruses expressing hGR were amplified and used to infect Sf9 cells. Infected cells were harvested 48 hrs post infection. […] The concentration of hGR in the extract was measured as specific ^3[H]-dex binding with the G25-assay as described in J. Steroid Biochem. Molec. […] The extract was aliquoted and stored at −70° C.
The filter binding assay: Dilution series of the test compounds and dex as reference were made from 10 mM (1 mM dex) stock solutions in DMSO. 10 μl of the dilutions was added in duplicates to the wells. The cell extracts were diluted 10 fold in EPMo+MTG buffer (1 mM EDTA, HPO4 20 mM (pH8), 6 mM MTG). […] 110 μl of the diluted ^3[H]-dex were added to the wells. The final concentration of hGR in the experiment was estimated to 1 nM. All preparations were made in […] on ice and with +4° C. temperated buffers. The plates were incubated over night at +4° C. (15-20 hours).
The incubation was stopped by filtration through GF/B filter on the Tomtec Cellharvester. The filtration on the Tomtec Cellharvester was programmed as follows: 1) Preparation before filtration with EP buffer (1 mM EDTA 20 mM HPO4 (pH8)) 2×[Wash/Asp 0.6 sec., Asp 0.5 sec.]; 2) Prewet of GF/B filter with EP+PEI buffer (EP buffer, 0.3% Polyethylenimine) [Asp 0.8 sec.]; 3) Filtration/harvesting of the 96-well incubation plate 3×[Wash/Asp 0.6 sec., Asp 0.5 sec.]. The GF/B filter was dried for at least 1 hour at 65° C. A MeltiLex scintillation wax was melted onto the filter with the Microsealer. The filter was placed in a samplebag, which was thereafter trimmed with scissors to fit the filter cassette. The cassette were placed in the Microbeta and measured for 1 min/position, returning ccpm (corrected counts per minute).
b=((bmax−bmin)/(1+(I/IC50)^S))+bminI
The Microbeta-instrument generates the mean cpm (counts per minute) value/minute and corrects for individual variations between the detectors thus generating corrected cpm values.

The source of these data is patent publication US6583180B2, “Glucocorticoid receptor modulators” (Abbott Laboratories, priority 2001, dated 2003).

As usually defined, the inhibition is the drop in the measured response relative to a control, in per cent.

The structures appear in SMILES notation.

For `CCc1ccc(Oc2ccc(CN(Cc3ccc(F)cc3F)c3cccc(NS(C)(=O)=O)c3C)cc2)cc1OCC(=O)O` [Example 236, (5-{4-[((2,4-difluorobenzyl){2-methyl-3-[(methylsulfonyl)amino]phenyl}amino)methyl]phenoxy}-2-ethylphenoxy)acetic acid], the inhibition at 1.7 µM turned out to be 96.1%.

For `CCCCCCc1ccc(Oc2ccc(CN(Cc3ccc(F)cc3F)c3cccc(NS(C)(=O)=O)c3C)cc2)cc1OCC(=O)O` [Example 238, (5-{4-[((2,4-difluorobenzyl){2-methyl-3-[(methylsulfonyl)amino]phenyl}amino)methyl]phenoxy}-2-hexylphenoxy)acetic acid], the inhibition at 1.7 µM stood at 94.2%.

As to `CCOC(=O)CN(C)C(=O)CCCOc1cccc(Oc2ccc(CN(Cc3ccccc3)c3cccc(NS(C)(=O)=O)c3C)cc2)c1` [Example 239, ethyl N-[4-(3-{4-[(benzyl{2-methyl-3-[(methylsulfonyl)amino]phenyl}amino)methyl]phenoxy}phenoxy)butanoyl]-N-methylglycinate], the inhibition at 1.7 µM was 93.4%.

On to `Cc1c(NS(C)(=O)=O)cccc1N(Cc1ccccc1)Cc1ccc(Oc2cccc(OCCCC(=O)N(C)CC(=O)O)c2)cc1` [Example 240, N-[4-(3-{4-[(benzyl{2-methyl-3-[(methylsulfonyl)amino]phenyl}amino)methyl]phenoxy}phenoxy)butanoyl]-N-methylglycine], for which the inhibition at 1.7 µM is 93.3%.

With `CCOC(=O)COc1cc(Oc2ccc(CN(Cc3ccc(F)cc3F)c3cccc(NS(C)(=O)=O)c3C)cc2)ccc1Cl` [Example 241, ethyl (2-chloro-5-{4-[((2,4-difluorobenzyl){2-methyl-3-[(methylsulfonyl)amino]phenyl}amino)methyl]phenoxy}phenoxy)acetate], the inhibition at 1.7 µM amounted to 90.6%.

As to `Cc1c(NS(C)(=O)=O)cccc1N(Cc1ccccc1)Cc1ccc(C(=O)c2cccc(OCCC3CC3)c2)cc1` [Example 242, N-[3-(benzyl{4-[3-(2-cyclopropylethoxy)benzoyl]benzyl}amino)-2-methylphenyl]methanesulfonamide], the inhibition at 1.7 µM was found to be 94.1%.

For `Cc1c(NS(C)(=O)=O)cccc1N(Cc1ccccc1)Cc1ccc(C(=O)c2cccc(OCC3CCCC3)c2)cc1` [Example 243, N-[3-(benzyl{4-[3-(cyclopentylmethoxy)benzoyl]benzyl}amino)-2-methylphenyl]methanesulfonamide], the inhibition at 1.7 µM came out at 92%.

On to `Cc1c(NS(C)(=O)=O)cccc1N(Cc1ccccc1)Cc1ccc(C(=O)c2cccc(OCC3CCCO3)c2)cc1` (stereo not drawn) [Example 244, N-[3-(benzyl{4-[3-(tetrahydrofuran-2-ylmethoxy)benzoyl]benzyl}amino)-2-methylphenyl]methanesulfonamide], for which the inhibition at 1.7 µM came out at 95.3%.

Take `Cc1c(NS(C)(=O)=O)cccc1N(Cc1ccccc1)Cc1ccc(C(=O)c2cccc(OCC3CCOC3)c2)cc1` (stereo not drawn) [Example 245, N-[3-(benzyl{4-[3-(tetrahydrofuran-3-ylmethoxy)benzoyl]benzyl}amino)-2-methylphenyl]methanesulfonamide]: the inhibition at 1.7 µM stood at 96.3%.

`Cc1c(NS(C)(=O)=O)cccc1N(Cc1ccccc1)Cc1ccc(C(=O)c2cccc(OCCc3ccccc3)c2)cc1` [Example 246, N-[3-(benzyl{4-[3-(2-phenylethoxy)benzoyl]benzyl}amino)-2-methylphenyl]methanesulfonamide]: the inhibition at 1.7 µM amounted to 88.6%.

As for `Cc1c(NS(C)(=O)=O)cccc1N(Cc1ccccc1)Cc1ccc(C(=O)c2cccc(OCc3ccccc3)c2)cc1` [Example 247, N-[3-(benzyl{4-[3-(benzyloxy)benzoyl]benzyl}amino)-2-methylphenyl]methanesulfonamide], the inhibition at 1.7 µM worked out at 90.9%.

Consider `Cc1c(NS(C)(=O)=O)cccc1N(Cc1ccccc1)Cc1ccc(C(=O)c2cccc(OCCN3CCCC3=O)c2)cc1` [Example 248, N-{3-[benzyl(4-{3-[2-(2-oxopyrrolidin-1-yl)ethoxy]benzoyl}benzyl)amino]-2-methylphenyl}methanesulfonamide], for which the inhibition at 1.7 µM is 96.7%.

In the case of `Cc1ncsc1CCOc1cccc(C(=O)c2ccc(CN(Cc3ccccc3)c3cccc(NS(C)(=O)=O)c3C)cc2)c1` [Example 249, N-{3-[benzyl(4-{3-[2-(4-methyl-1,3-thiazol-5-yl)ethoxy]benzoyl}benzyl)amino]-2-methylphenyl}methanesulfonamide], the inhibition at 1.7 µM came out at 95.4%.

For the compound `Cc1c(NS(C)(=O)=O)cccc1N(Cc1ccccc1)Cc1ccc(C(=O)c2ccc(OC[C@H](O)CO)cc2)cc1` [Example 250, N-(3-{benzyl[4-(4-{[(2R)-2,3-dihydroxypropyl]oxy}benzoyl)benzyl]amino}-2-methylphenyl)methanesulfonamide], the inhibition at 1.7 µM turned out to be 92.9%.

On to `Cc1c(NS(C)(=O)=O)cccc1N(Cc1ccccc1)Cc1ccc(Oc2ccc(OCCCC(=O)NCC(=O)O)cc2)cc1` [Example 251, N-[4-(4-{4-[(benzyl{2-methyl-3-[(methylsulfonyl)amino]phenyl}amino)methyl]phenoxy}phenoxy)butanoyl]glycine], for which the inhibition at 1.7 µM stood at 94.2%.

Regarding `Cc1c(NS(C)(=O)=O)cccc1N(Cc1ccccc1)Cc1ccc(Oc2ccc(OCCCC(=O)NCCC(=O)O)cc2)cc1` [Example 252, N-[4-(4-{4-[(benzyl{2-methyl-3-[(methylsulfonyl)amino]phenyl}amino)methyl]phenoxy}phenoxy)butanoyl]-beta-alanine], the inhibition at 1.7 µM is 91.9%.

With `Cc1c(NS(C)(=O)=O)cccc1N(Cc1ccccc1)Cc1ccc(Oc2ccc(OCCCC(=O)N(C)CC(=O)O)cc2)cc1` [Example 254, N-[4-(4-{4-[(benzyl{2-methyl-3-[(methylsulfonyl)amino]phenyl}amino)methyl]phenoxy}phenoxy)butanoyl]-N-methylglycine], the inhibition at 1.7 µM was 92.8%.

`Cc1c(NS(C)(=O)=O)cccc1N(Cc1ccccc1)Cc1ccc(Oc2ccc(OCCCC(=O)N[C@@H](CCC(=O)O)C(=O)O)cc2)cc1` [Example 255, N-[4-(4-{4-[(benzyl{2-methyl-3-[(methylsulfonyl)amino]phenyl}amino)methyl]phenoxy}phenoxy)butanoyl]-L-glutamic acid]: the inhibition at 1.7 µM was found to be 93.6%.

Turning to `Cc1c(NS(C)(=O)=O)cccc1N(Cc1ccccc1)Cc1ccc(Oc2ccc(OCCCC(=O)N[C@H](C(=O)O)C(C)C)cc2)cc1` [Example 256, N-[4-(4-{4-[(benzyl{2-methyl-3-[(methylsulfonyl)amino]phenyl}amino)methyl]phenoxy}phenoxy)butanoyl]-L-valine], the inhibition at 1.7 µM amounted to 92.6%.

For the compound `Cc1c(NS(C)(=O)=O)cccc1N(Cc1ccccc1)Cc1ccc(Oc2ccc(OCCCC(=O)Nc3cc(C(=O)O)n(C)c3)cc2)cc1` [Example 257, 4-{[4-(4-{4-[(benzyl{2-methyl-3-[(methylsulfonyl)amino]phenyl}amino)methyl]phenoxy}phenoxy)butanoyl]amino}-1-methyl-1H-pyrrole-2-carboxylic acid], the inhibition at 1.7 µM came out at 90.6%.

Turning to `Cc1c(NS(C)(=O)=O)cccc1N(Cc1ccccc1)Cc1ccc(Oc2ccc(OCCCC(=O)N[C@@H](CO)C(=O)O)cc2)cc1` [Example 258, N-[4-(4-{4-[(benzyl{2-methyl-3-[(methylsulfonyl)amino]phenyl}amino)methyl]phenoxy}phenoxy)butanoyl]-L-serine], the inhibition at 1.7 µM amounted to 91.6%.
